{"source": "patent US8394401B2", "about": "“Antiobesity or antihyperlipidemic food, feeding stuff or supplement containing lysine” (Ajinomoto Co., Inc., priority 2004, dated 2013)", "format_in_all_cases": "in vivo, C57BL/6J male mice", "key": {"[1]": {"experiment": "Experimental Example 1: high fat diet-induced obese mice fed a 20% protein energy diet supplemented with lysine hydrochloride for 8 weeks", "source_text": "A high fat diet (dietary energy composition ratio was protein:fat:carbohydrate=17:46:37) was provided for 16 weeks to 30 5-week-old C57BL/6J male mice. At the 16th week, the 30 mice were divided into 3 groups, each consisting of 10 individuals (n=10), and from then, the following diets were provided for 8 weeks to the 3 groups, respectively, (1) 20% protein energy diet (LF; protein:fat:carbohydrate=2:7:1), (2) 20% protein energy diet supplemented with 1% lysine hydrochloride (LF1K; containing 1% lysine hydrochloride (0.8% lysine base)), and (3) 20% protein energy diet supplemented with 3% lysine hydrochloride (LF3K; containing 3% lysine hydrochloride (2.4% lysine base)). Herein, the term “lysine base” refers to free-form lysine. Further, as a nonobese group, a group (LL) was prepared consisting of 10 mice of the same species that were fed with 20% protein energy diet (protein:fat:carbohydrate=2:7:1) from the start of the experiment until the end, i.e., for 24 weeks.\nThe food intakes were measured and the energy intakes were determined from the energy per g of each test diet. After 8 weeks of the experimental period, the body weight and the total fat weight (sum of epididymal fat, perirenal fat, mesenteric fat, and subcutaneous fat in the periphery of the femoral region) were measured. Statistical analysis was performed using Dunnett's test employing the LF group as the control."}, "[2]": {"experiment": "Experimental Example 2: mice fed 10/20/40/60% protein energy diets with or without 3% lysine hydrochloride for 4 weeks", "details": "after 4 weeks, vs respective diet without lysine supplementation", "source_text": "The following feeding stuffs were respectively provided for 4 weeks to 8 groups of 9-week-old C57BL/6J male mice, consisting of 10 individuals per group (n=10): (1) 10% protein energy diet (LP; dietary energy composition ratio was protein:fat:carbohydrate=1:1:8), (2) 10% protein energy diet supplemented with lysine hydrochloride (LPK), (3) 20% protein energy diet (LF; protein:fat:carbohydrate=2:1:7), (4) 20% protein energy diet supplemented with lysine hydrochloride (LFK), (5) 40% protein energy diet (MP; protein:fat:carbohydrate =4:1:5), (6) 40% protein energy diet supplemented with lysine hydrochloride (MPK), (7) 60% protein energy diet (HP; protein:fat:carbohydrate=6:1:3), and (8) 60% protein energy diet supplemented with lysine hydrochloride (HPK). The diets, when supplemented with lysine hydrochloride, were added with 3% lysine hydrochloride.\nAfter 4 weeks the experimental period, the body weight, the total fat weight(sum of epididymal fat, perirenal fat, mesenteric fat, and subcutaneous fat in the periphery of the femoral region), and the kidney weight were measured. Statistical analysis was performed using Dunnett's test, employing the respective groups fed with the diets without lysine supplementation as the controls."}, "[3]": {"experiment": "Experimental Example 3: mice fed high fat feed supplemented with lysine hydrochloride, triglyceride concentration in blood plasma", "source_text": "The following diets were respectively provided for 8 weeks to 4 groups of 9-week-old C57BL/6J male mice, consisting of 10 individuals per group (n=10): (1) 20% protein energy diet (LF; dietary energy composition ratio was protein:fat:carbohydrate=2:7:1), (2) high fat feed (HF; protein:fat:carbohydrate=17:46:37), (3) high fat food supplemented with 1% lysine hydrochloride (HF1K; containing 1% lysine hydrochloride (0.8% lysine base)), and (4) high fat feed supplemented with 3% lysine hydrochloride (HF3K; containing 3% lysine hydrochloride (2.4% lysine base)).\nAfter 8 weeks of the experimental period, the triglyceride concentration in the blood plasma was measured. Statistical analysis was performed using Dunnett's test employing the HF group as the control."}, "[4]": {"details": "after 8 weeks, 1% or 3% lysine hydrochloride in 20% protein energy diet, vs LF group, Dunnett's test p<0.05, dose-dependent"}, "[5]": {"details": "mice, feeding stuff having 20% protein energy, lysine component(s) 0.8 to 3.0 wt % on the dry matter basis"}}}
{"smiles": "Cl.NCCCC[C@H](N)C(=O)O", "note": "[lysine hydrochloride, L-Lysine hydrochloride]", "values": [{"measurement": "body weight upon the autopsy", "setting": "[1]; [4]", "result": "significant decrease"}, {"measurement": "total fat weight (sum of epididymal, perirenal, mesenteric and femoral subcutaneous fat)", "setting": "[1]; [4]", "result": "significant decrease"}, {"measurement": "increase in body fat", "setting": "[1]; [5]", "result": "suppressed"}, {"measurement": "increase in body weight", "setting": "[1]; [5]", "result": "suppressed"}, {"measurement": "total fat weight", "setting": "[2]", "result": "decrease"}, {"measurement": "body weight", "setting": "[2]; Dunnett's test p<0.05", "result": "decrease"}, {"measurement": "increase in the triglyceride concentration in the blood plasma due to intake of the high fat diet", "setting": "[3]; after 8 weeks, 1% or 3% lysine hydrochloride in high fat feed, vs HF group, Dunnett's test p<0.05", "result": "significantly inhibited"}, {"measurement": "improvement effect for hyperlipidemia", "setting": "[3]; mice, lysine component(s) 0.8 to 3.0 wt % on the dry matter basis", "result": "improvement effect for hyperlipidemia was exhibited"}]}
